According to patent US7300946B2, “N-(substituted arylmethyl)-4-(disubstituted methyl) piperidines and pyridines” (Bayer CropScience AG, priority 2002, dated 2007):

Tested on: tobacco budworm (Heliothis virescens [Fabricius])
Assay: surface-treated diet test against the tobacco budworm
Type: in vivo
Details: tobacco budworm second instar larvae, surface-treated diet, 0.25 millimoles of candidate insecticide on the surface of the diet, five-day exposure; for Percent Mortality: compared to total number of insects infested; for Percent Growth Inhibition: inhibition of insect weight relative to untreated controls
Method in brief: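 Wheat germ artificial diet surface-treated with 40 µL of 50 mM DMSO stock diluted 1:7 in 1:1 water/acetone (0.25 millimolar on diet), or sub-multiples for rate tests. One second-instar larva per well, 25° C, 60% RH, 5 days; percent weight inhibition vs DMSO controls and percent mortality.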

Compound: Cc1ccc(NC(=O)NC(c2ccc(OC(F)(F)F)cc2)C2CCN(Cc3ccc(-c4nnn(C)n4)cc3)CC2)cc1 (stereo not drawn) [Compound 342]
- Percent Mortality: 100%
- Percent Growth Inhibition: 100%

Compound: COc1ccc(NC(=O)NC(c2ccc(OC(F)(F)F)cc2)C2CCN(Cc3ccc(-c4nnn(C)n4)cc3)CC2)cc1 (stereo not drawn) [Compound 343]
- Percent Mortality: 100%
- Percent Growth Inhibition: 100%

Compound: Cn1nnc(-c2ccc(CN3CCC(C(NC(=O)Nc4ccc(C(F)(F)F)cc4)c4ccc(OC(F)(F)F)cc4)CC3)cc2)n1 (stereo not drawn) [Compound 344]
- Percent Mortality: 100%
- Percent Growth Inhibition: 100%

Compound: Cn1nnc(-c2ccc(CN3CCC(C(NC(=O)Nc4ccc(OC(F)(F)F)cc4)c4ccc(OC(F)(F)F)cc4)CC3)cc2)n1 (stereo not drawn) [Compound 345]
- Percent Mortality: 100%
- Percent Growth Inhibition: 100%

Compound: Cn1nnc(-c2ccc(CN3CCC(C(NC(=O)Nc4ccc([N+](=O)[O-])cc4)c4ccc(OC(F)(F)F)cc4)CC3)cc2)n1 (stereo not drawn) [Compound 346]
- Percent Mortality: 100%
- Percent Growth Inhibition: 100%

Compound: Cn1nnc(-c2ccc(CN3CCC(C(NC(=O)Oc4ccccc4Cl)c4ccc(OC(F)(F)F)cc4)CC3)cc2)n1 (stereo not drawn) [Compound 347]
- Percent Mortality: 83%
- Percent Growth Inhibition: 100%

Compound: Cn1nnc(-c2ccc(CN3CCC(C(NC(=O)Oc4cccc(Cl)c4)c4ccc(OC(F)(F)F)cc4)CC3)cc2)n1 (stereo not drawn) [Compound 348]
- Percent Mortality: 100%
- Percent Growth Inhibition: 100%

Compound: Cn1nnc(-c2ccc(CN3CCC(C(NC(=O)Oc4ccc(Cl)cc4)c4ccc(OC(F)(F)F)cc4)CC3)cc2)n1 (stereo not drawn) [Compound 349]
- Percent Mortality: 100%
- Percent Growth Inhibition: 100%

Compound: Cn1nnc(-c2ccc(CN3CCC(C(NC(=O)Oc4ccc(Br)cc4)c4ccc(OC(F)(F)F)cc4)CC3)cc2)n1 (stereo not drawn) [Compound 350]
- Percent Mortality: 100%
- Percent Growth Inhibition: 100%

Compound: Cn1nnc(-c2ccc(CN3CCC(C(NC(=O)Oc4ccccc4F)c4ccc(OC(F)(F)F)cc4)CC3)cc2)n1 (stereo not drawn) [Compound 351]
- Percent Mortality: 50%
- Percent Growth Inhibition: 100%

Compound: Cn1nnc(-c2ccc(CN3CCC(C(NC(=O)Oc4cccc(F)c4)c4ccc(OC(F)(F)F)cc4)CC3)cc2)n1 (stereo not drawn) [Compound 352]
- Percent Mortality: 83%
- Percent Growth Inhibition: 100%

Compound: Cn1nnc(-c2ccc(CN3CCC(C(NC(=O)Oc4ccc(F)cc4)c4ccc(OC(F)(F)F)cc4)CC3)cc2)n1 (stereo not drawn) [Compound 353]
- Percent Mortality: 17%
- Percent Growth Inhibition: 87%

Compound: Cn1nnc(-c2ccc(CN3CCC(C(NC(=O)Oc4ccc(I)cc4)c4ccc(OC(F)(F)F)cc4)CC3)cc2)n1 (stereo not drawn) [Compound 354]
- Percent Mortality: 100%
- Percent Growth Inhibition: 100%

Compound: Cc1ccc(OC(=O)NC(c2ccc(OC(F)(F)F)cc2)C2CCN(Cc3ccc(-c4nnn(C)n4)cc3)CC2)cc1 (stereo not drawn) [Compound 355]
- Percent Mortality: 100%
- Percent Growth Inhibition: 100%

Compound: COc1ccc(OC(=O)NC(c2ccc(OC(F)(F)F)cc2)C2CCN(Cc3ccc(-c4nnn(C)n4)cc3)CC2)cc1 (stereo not drawn) [Compound 356]
- Percent Mortality: 100%
- Percent Growth Inhibition: 100%

Compound: Cn1nnc(-c2ccc(CN3CCC(C(NC(=O)Oc4ccc(OC(F)(F)F)cc4)c4ccc(OC(F)(F)F)cc4)CC3)cc2)n1 (stereo not drawn) [Compound 357]
- Percent Mortality: 100%
- Percent Growth Inhibition: 100%

Compound: Cn1nnc(-c2ccc(CN3CCC(C(NC(=O)Oc4ccc([N+](=O)[O-])cc4)c4ccc(OC(F)(F)F)cc4)CC3)cc2)n1 (stereo not drawn) [Compound 358]
- Percent Mortality: 83%
- Percent Growth Inhibition: 99%

Compound: O=C(Nc1ccc(Cl)cc1)OC(c1ccc(C(F)(F)F)cc1)C1CC[N+]([O-])(Cc2ccc(Oc3ccccn3)cc2)CC1 (stereo not drawn) [Compound 395, N-(4-chlorophenyl)({1-[(4-(2-pyridyloxy)phenyl)methyl](4-(1-oxypiperidyl))}[4-(trifluoromethyl)phenyl]methoxy)carboxamide]
- Percent Mortality: 100%
- Percent Growth Inhibition: 100%

Compound: O=C(Nc1ccc(Cl)c(Cl)c1)OC(c1ccc(C(F)(F)F)cc1)C1CC[N+]([O-])(Cc2ccc(Oc3ccccn3)cc2)CC1 (stereo not drawn) [Compound 396]
- Percent Mortality: 100%
- Percent Growth Inhibition: 100%

Compound: O=C(Nc1cc(F)cc(F)c1)OC(c1ccc(C(F)(F)F)cc1)C1CC[N+]([O-])(Cc2ccc(Oc3ccccn3)cc2)CC1 (stereo not drawn) [Compound 397]
- Percent Mortality: 100%
- Percent Growth Inhibition: 100%

Compound: O=C(Nc1ccc(C(F)(F)F)cc1)OC(c1ccc(C(F)(F)F)cc1)C1CC[N+]([O-])(Cc2ccc(Oc3ccccn3)cc2)CC1 (stereo not drawn) [Compound 398]
- Percent Mortality: 100%
- Percent Growth Inhibition: 100%

Compound: Cn1nnc(-c2ccc(C[N+]3([O-])CCC(C(OC(=O)Nc4ccc(Cl)cc4)c4ccc(OC(F)(F)F)cc4)CC3)cc2)n1 (stereo not drawn) [Compound 399]
- Percent Mortality: 100%
- Percent Growth Inhibition: 100%

Compound: Cn1nnc(-c2ccc(C[N+]3([O-])CCC(C(OC(=O)Nc4ccc(F)cc4)c4ccc(OC(F)(F)F)cc4)CC3)cc2)n1 (stereo not drawn) [Compound 400]
- Percent Mortality: 100%
- Percent Growth Inhibition: 100%

Compound: CCn1nnc(-c2ccc(C[N+]3([O-])CCC(C(OC(=O)Nc4ccc(F)cc4)c4ccc(OC(F)(F)F)cc4)CC3)cc2)n1 (stereo not drawn) [Compound 401]
- Percent Mortality: 100%
- Percent Growth Inhibition: 100%

Compound: Cn1nnc(-c2ccc(C[N+]3([O-])CCC(C(OC(=O)Nc4ccc(C(F)(F)F)cc4)c4ccc(OC(F)(F)F)cc4)CC3)cc2)n1 (stereo not drawn) [Compound 402]
- Percent Mortality: 100%
- Percent Growth Inhibition: 100%

Compound: Cn1nnc(-c2ccc(C[N+]3([O-])CCC(C(OC(=O)Nc4ccc(OC(F)(F)F)cc4)c4ccc(OC(F)(F)F)cc4)CC3)cc2)n1 (stereo not drawn) [Compound 404]
- Percent Mortality: 100%
- Percent Growth Inhibition: 100%

Compound: CCn1nnc(-c2ccc(C[N+]3([O-])CCC(C(OC(=O)Nc4ccc(OC(F)(F)F)cc4)c4ccc(OC(F)(F)F)cc4)CC3)cc2)n1 (stereo not drawn) [Compound 405]
- Percent Mortality: 100%
- Percent Growth Inhibition: 100%

Compound: CCCNC(=O)OC(c1ccc(C(F)(F)F)cc1)C1CCN(Cc2ccc(Oc3ccccn3)cc2)CC1 (stereo not drawn) [Compound 427]
- Percent Mortality: 33%
- Percent Growth Inhibition: 100%

Compound: CC(C)NC(=O)OC(c1ccc(C(F)(F)F)cc1)C1CCN(Cc2ccc(Oc3ccccn3)cc2)CC1 (stereo not drawn) [Compound 429]
- Percent Mortality: 100%
- Percent Growth Inhibition: 100%

Compound: O=C(NC1CCCCC1)OC(c1ccc(C(F)(F)F)cc1)C1CCN(Cc2ccc(Oc3ccccn3)cc2)CC1 (stereo not drawn) [Compound 432]
- Percent Mortality: 100%
- Percent Growth Inhibition: 100%

Compound: CCCS(=O)(=O)NC(c1ccc(OC(F)(F)F)cc1)C1CCN(Cc2ccc(-c3nnn(C)n3)cc2)CC1 (stereo not drawn) [Compound 433, [(1-{[4-(2-methyl(1,2,3,4-tetraazol-5-yl))phenyl]methyl}(4-piperidyl))[4-(trifluoromethoxy)phenyl]methyl]propylsulfonylamide]
- Percent Mortality: 100%
- Percent Growth Inhibition: 100%

Compound: Cn1nnc(-c2ccc(CN3CCC(C(Oc4ccc(C(F)(F)F)cn4)c4ccc(OC(F)(F)F)cc4)CC3)cc2)n1 (stereo not drawn) [Compound 434, 2-[(1-{[4-(2-methyl(1,2,3,4-tetraazol-5-yl))phenyl]methyl}(4-piperidyl))[4-(trifluoromethoxy)phenyl]methoxy]-5-(trifluoromethyl)pyridine]
- Percent Mortality: 100%
- Percent Growth Inhibition: 100%

Compound: Cn1nnc(-c2ccc(CN3CCC(C(Oc4ccc(Cl)cn4)c4ccc(C(F)(F)F)cc4)CC3)cc2)n1 (stereo not drawn) [Compound 435]
- Percent Mortality: 100%
- Percent Growth Inhibition: 100%

Compound: O=C(Nc1ccccn1)OC(c1ccc(C(F)(F)F)cc1)C1CCN(Cc2ccc(Oc3ccccn3)cc2)CC1 (stereo not drawn) [Compound 436]
- Percent Mortality: 50%
- Percent Growth Inhibition: 100%

Compound: FC(F)(F)c1ccc(C(Oc2ccc(C(F)(F)F)cn2)C2CCN(Cc3ccc(Oc4ccccn4)cc3)CC2)cc1 (stereo not drawn) [Compound 437]
- Percent Mortality: 100%
- Percent Growth Inhibition: 100%

Compound: FC(F)(F)c1ccc(C(Oc2cc(C(F)(F)F)ccn2)C2CCN(Cc3ccc(Oc4ccccn4)cc3)CC2)cc1 (stereo not drawn) [Compound 438]
- Percent Mortality: 100%
- Percent Growth Inhibition: 100%

Compound: O=C(Nc1ccc(Cl)cn1)OC(c1ccc(C(F)(F)F)cc1)C1CCN(Cc2ccc(Oc3ccccn3)cc2)CC1 (stereo not drawn) [Compound 439]
- Percent Mortality: 100%
- Percent Growth Inhibition: 100%

Compound: FC(F)(F)c1ccc(C(Oc2ccc(C(F)(F)F)cn2)C2CCN(Cc3ccc(Oc4ccc(Cl)nn4)cc3)CC2)cc1 (stereo not drawn) [Compound 440]
- Percent Mortality: 100%
- Percent Growth Inhibition: 100%

Compound: FC(F)(F)c1ccc(C(Oc2cc(C(F)(F)F)ccn2)C2CCN(Cc3ccc(Oc4ccc(Cl)nn4)cc3)CC2)cc1 (stereo not drawn) [Compound 441]
- Percent Mortality: 100%
- Percent Growth Inhibition: 100%

Compound: [O-][N+]1(Cc2ccc(Oc3ccccn3)cc2)CCC(C(Oc2ccc(C(F)(F)F)cn2)c2ccc(C(F)(F)F)cc2)CC1 (stereo not drawn) [Compound 442]
- Percent Mortality: 100%
- Percent Growth Inhibition: 100%

Compound: FC(F)(F)c1ccc(C(Oc2cncc(Cl)c2)C2CCN(Cc3ccc(Oc4ccccn4)cc3)CC2)cc1 (stereo not drawn) [Compound 443]
- Percent Mortality: 33%
- Percent Growth Inhibition: 100%

Compound: O=C(Nc1cccnc1)OC(c1ccc(C(F)(F)F)cc1)C1CCN(Cc2ccc(Oc3ccccn3)cc2)CC1 (stereo not drawn) [Compound 444]
- Percent Mortality: 0%
- Percent Growth Inhibition: 96%

Compound: O=C(Nc1ccc(Cl)nc1)OC(c1ccc(C(F)(F)F)cc1)C1CCN(Cc2ccc(Oc3ccccn3)cc2)CC1 (stereo not drawn) [Compound 445]
- Percent Mortality: 100%
- Percent Growth Inhibition: 100%

Compound: N#Cc1ccc(NC(=O)OC(c2ccc(C(F)(F)F)cc2)C2CCN(Cc3ccc(Oc4ccccn4)cc3)CC2)cn1 (stereo not drawn) [Compound 446]
- Percent Mortality: 17%
- Percent Growth Inhibition: 100%

Compound: O=C(Nc1cccnc1Cl)OC(c1ccc(C(F)(F)F)cc1)C1CCN(Cc2ccc(Oc3ccccn3)cc2)CC1 (stereo not drawn) [Compound 447]
- Percent Mortality: 100%
- Percent Growth Inhibition: 100%
